Source: ChEMBL document CHEMBL4420070, “6-6 Fused Bicyclic Heteroaryl Compounds and their Use as LATS Inhibitors” (2018)
Calls of active or inactive are those of the source. The calls are words filed in the database; no cut-off is given here.

Tests used:
[1] = biological target: T1, Serine/threonine-protein kinase LATS1 (Homo sapiens, UniProt O95835); experiment: Inhibition of human LATS1 kinase domain (589 to 1130 amino acids) incubated for 30 mins by HTRF assay
T1 sequence (O95835 whole entry): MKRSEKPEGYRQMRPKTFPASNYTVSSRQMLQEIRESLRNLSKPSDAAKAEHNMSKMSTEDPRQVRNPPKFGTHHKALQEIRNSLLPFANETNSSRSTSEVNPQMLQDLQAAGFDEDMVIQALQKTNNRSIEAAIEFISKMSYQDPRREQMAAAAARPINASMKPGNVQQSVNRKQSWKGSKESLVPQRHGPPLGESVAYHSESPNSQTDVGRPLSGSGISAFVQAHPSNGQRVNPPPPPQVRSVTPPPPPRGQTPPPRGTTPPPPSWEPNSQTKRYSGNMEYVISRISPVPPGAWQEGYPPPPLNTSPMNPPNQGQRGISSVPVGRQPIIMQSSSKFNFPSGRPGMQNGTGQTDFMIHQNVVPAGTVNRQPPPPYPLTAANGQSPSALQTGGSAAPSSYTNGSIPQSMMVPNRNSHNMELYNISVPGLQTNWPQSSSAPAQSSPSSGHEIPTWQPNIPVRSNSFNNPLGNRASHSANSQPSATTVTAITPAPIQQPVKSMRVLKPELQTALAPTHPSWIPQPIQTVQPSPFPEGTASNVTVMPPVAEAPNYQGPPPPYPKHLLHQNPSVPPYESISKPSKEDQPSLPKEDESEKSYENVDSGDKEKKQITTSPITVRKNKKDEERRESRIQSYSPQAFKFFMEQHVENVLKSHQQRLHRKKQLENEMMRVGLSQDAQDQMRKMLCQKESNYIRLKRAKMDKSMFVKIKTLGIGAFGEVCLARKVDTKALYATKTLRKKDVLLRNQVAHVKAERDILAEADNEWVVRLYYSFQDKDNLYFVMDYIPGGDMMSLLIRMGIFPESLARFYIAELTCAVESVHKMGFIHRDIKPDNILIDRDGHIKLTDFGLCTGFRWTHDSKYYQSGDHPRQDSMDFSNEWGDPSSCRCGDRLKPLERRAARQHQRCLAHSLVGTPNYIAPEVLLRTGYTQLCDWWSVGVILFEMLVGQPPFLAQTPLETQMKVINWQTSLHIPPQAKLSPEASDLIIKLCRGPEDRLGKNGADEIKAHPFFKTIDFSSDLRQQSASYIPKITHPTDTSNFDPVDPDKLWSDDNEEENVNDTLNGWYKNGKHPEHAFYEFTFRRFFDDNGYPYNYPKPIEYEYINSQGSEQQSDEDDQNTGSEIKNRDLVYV

[2] = biological target: T2, Serine/threonine-protein kinase LATS (Homo sapiens) (UniProt Q9NRM7+O95835); experiment: Inhibition of LATS in human limbal epithelial cells assessed as induction of limbal stem cell expansion by measuring expansion factor ratio at 10 uM measured after 2 weeks by p63alpha expression detection based immunohistochemistry relative to control; set-up: scale not given: the % may be the effect or the level left
T2 sequence (Q9NRM7 whole entry, looked up, one chain of several): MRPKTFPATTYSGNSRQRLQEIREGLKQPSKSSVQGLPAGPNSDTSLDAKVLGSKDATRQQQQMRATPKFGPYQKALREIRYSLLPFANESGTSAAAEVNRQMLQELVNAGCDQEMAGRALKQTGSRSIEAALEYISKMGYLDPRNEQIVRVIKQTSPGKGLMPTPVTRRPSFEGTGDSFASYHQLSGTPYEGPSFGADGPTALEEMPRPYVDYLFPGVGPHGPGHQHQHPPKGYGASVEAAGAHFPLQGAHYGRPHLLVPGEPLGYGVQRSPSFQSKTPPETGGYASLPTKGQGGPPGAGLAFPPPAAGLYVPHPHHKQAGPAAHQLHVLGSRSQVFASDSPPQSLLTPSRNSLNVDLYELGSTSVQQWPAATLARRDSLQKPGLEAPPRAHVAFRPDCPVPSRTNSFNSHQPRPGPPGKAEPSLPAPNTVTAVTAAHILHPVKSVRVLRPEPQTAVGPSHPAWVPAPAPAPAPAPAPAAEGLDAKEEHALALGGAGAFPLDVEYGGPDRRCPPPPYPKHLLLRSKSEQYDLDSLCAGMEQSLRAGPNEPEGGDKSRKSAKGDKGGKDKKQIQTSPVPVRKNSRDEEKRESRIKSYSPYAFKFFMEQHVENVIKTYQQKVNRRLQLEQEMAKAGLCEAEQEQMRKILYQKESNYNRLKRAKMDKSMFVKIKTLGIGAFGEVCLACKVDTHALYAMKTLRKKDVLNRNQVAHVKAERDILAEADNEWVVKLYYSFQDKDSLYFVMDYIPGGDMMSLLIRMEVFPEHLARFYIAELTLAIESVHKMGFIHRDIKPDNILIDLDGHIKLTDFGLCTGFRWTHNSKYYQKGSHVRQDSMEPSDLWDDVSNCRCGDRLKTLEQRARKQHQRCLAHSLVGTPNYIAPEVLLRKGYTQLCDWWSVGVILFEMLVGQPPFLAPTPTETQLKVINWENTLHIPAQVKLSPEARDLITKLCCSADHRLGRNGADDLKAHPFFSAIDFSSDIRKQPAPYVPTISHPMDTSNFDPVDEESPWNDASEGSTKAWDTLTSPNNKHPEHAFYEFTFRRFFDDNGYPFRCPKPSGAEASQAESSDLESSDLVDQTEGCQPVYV

[3] = biological target: T2, Serine/threonine-protein kinase LATS (Homo sapiens); experiment: Inhibition of LATS in human corneal endothelium cells assessed as induction of cell expansion by measuring cell density at 10 uM by Sytox orange dye based epifluorescence microscopy
[4] = test system: Mus musculus; experiment: Inhibition of LATS in C57BL/6 mouse with full-thickness excisional wounds assessed as up-regulation of YAP target gene Cyr61 expression at 0.2 to 2 mg/ml administered topically by RT-PCR analysis; type: functional, organism-based
[5] = test system: Mus musculus; experiment: Induction of basal skin cell proliferation in C57BL/6 mouse at 250 ug administered topically twice per day by micrography; type: functional, organism-based
[6] = test system: Mus musculus; experiment: Induction of epidermal thickness in C57BL/6 mouse at 250 ug administered topically twice per day by micrography; type: functional, organism-based
[7] = biological target: T2, Serine/threonine-protein kinase LATS (Homo sapiens); experiment: Inhibition of LATS in human limbal epithelial cells assessed as increase in YAP level at 10 uM incubated for 24 hrs by immunostaining based assay; settings: Epithelial cell
[8] = biological target: T2, Serine/threonine-protein kinase LATS (Homo sapiens); experiment: Inhibition of LATS in human limbal epithelial cells assessed as reduction in YAP phosphorylation level at 10 uM incubated for 1 hr by Western blot analysis; type: cell-based; settings: Epithelial cell
[9] = biological target: T2, Serine/threonine-protein kinase LATS (Homo sapiens); experiment: Inhibition of LATS in human limbal epithelial cells assessed as induction of limbal stem cell expansion by measuring p63alpha expression at 10 uM measured after 2 weeks by immunohistochemistry; type: cell-based
[10] = biological target: T2, Serine/threonine-protein kinase LATS (Homo sapiens); experiment: Inhibition of LATS in human limbal epithelial cells assessed as induction of limbal stem cell expansion marker expression by measuring deltaN-p63-alphabetagamma protein expression at 10 uM incubated for 8 to 10 days by immunohistochemistry; type: cell-based
[11] = biological target: T2, Serine/threonine-protein kinase LATS (Homo sapiens); experiment: Inhibition of LATS in human limbal epithelial cells assessed as induction of limbal stem cell expansion marker expression by measuring ABCG2 protein expression at 10 uM incubated for 8 to 10 days by immunohistochemistry; type: cell-based
[12] = biological target: T2, Serine/threonine-protein kinase LATS (Homo sapiens); experiment: Inhibition of LATS in human limbal epithelial cells assessed as induction of limbal stem cell expansion marker expression by measuring C/EBPdelta protein expression at 10 uM incubated for 8 to 10 days by immunohistochemistry; type: cell-based
[13] = biological target: T2, Serine/threonine-protein kinase LATS (Homo sapiens); experiment: Inhibition of LATS in human corneal endothelium cells assessed as increase in YAP level at 10 uM incubated for 24 hrs by immunohistochemistry
[14] = biological target: T2, Serine/threonine-protein kinase LATS (Homo sapiens); experiment: Inhibition of LATS in human corneal endothelium cells assessed as reduction in YAP phosphorylation at 10 uM incubated for 1 hr by Western blot analysis
[15] = biological target: T2, Serine/threonine-protein kinase LATS (Homo sapiens); experiment: Inhibition of LATS in human corneal endothelium cells assessed as induction of cell proliferation measured every 3 hrs for 10 days
[16] = Total drug level in cell pellets of human limbal stem cells by LC-MS analysis; type: ADME
[17] = Total drug level in cell pellets of human corneal endothelium cells by LC-MS analysis; type: ADME
[18] = Drug level in cell pellets of human corneal endothelium cells by LC-MS analysis; type: ADME
[19] = Drug level in post wash cell pellets of human limbal stem cells by LC-MS analysis; type: ADME

IC50 [1] [nM]	Activity [2] [%]	Compound	Activity [3]	also measured
20	–	CC1(C)CC(O)CCN1c1cc(-c2ccncc2Cl)nc2cnccc12 (centres undefined)	–	–
–	57 to 97	O[C@H]1CCC[C@@H]1Nc1nc(-c2ccncc2)nc2cnccc12	25 /mm2	–
–	57 to 97	FC(F)(F)C1(Nc2nc(-c3ccncc3)cc3cnccc23)CC1	2780 /mm2	–
–	57 to 97	Cc1n[nH]cc1-c1nc(NC2(C)CC2)c2ccncc2n1	2030 /mm2	inhibition [4]: Dose-dependent effect; Activity [5]: Active; Activity [6]: Active; inhibition [7]: Active; inhibition [8]: Active; inhibition [9]: Active; inhibition [10]: Active; inhibition [11]: Active; inhibition [12]: Active; inhibition [13]: Active; inhibition [14]: Active; inhibition [15]: Active
–	57 to 97	CC(C)(CO)Nc1nc(-c2ccncc2)nc2cnccc12	2500 /mm2	–
–	–	C[C@H](N(C)c1nc(-c2ccncc2)nc2cnccc12)C(F)(F)F	–	Drug uptake [16]: 340 pg; Drug uptake [17]: 0.75 pg; Drug uptake [18]: 0.004 to 0.071 nM
1	–	CN(C)CCC(C)(C)Nc1nc(-c2ccncc2)nc2cnccc12	–	–
–	57 to 97	FC(F)(F)C1CN(c2nc(-c3ccncc3)nc3cnccc23)CCN1 (centres undefined)	2070 /mm2	–
–	57 to 97	FC(F)(F)C1(Nc2nc(-c3ccncc3)nc3cnccc23)CCC1	3300 /mm2	–
10	–	Cc1n[nH]c(C)c1-c1nc(NC(C)(C)C(F)(F)F)c2ccncc2n1	–	–
7	–	c1cc(-c2cc(NC3CCCC3)c3ccncc3n2)ccn1	–	–
–	–	CC(C)N(C)c1nc(-c2ccncc2)nc2cnccc12	3910 /mm2	Drug uptake [16]: 415 pg; Drug uptake [19]: 13.5 to 46.5 nM
